Laboratory results reported in patent US8829203B2, “3′,6-substituted indirubins and their biological applications” (Centre National de la Recherche Scientifique (CNRS), priority 2008, dated 2014).
Counter-ions that a name gives are not always drawn.

Assays:
[1] = test system: GSK-3-phosphorylated β-catenin; experiment: β-catenin phosphorylation at GSK-3 sites in SH-SY5Y cells (Western blot / ELISA); assay type: cell-based, human; conditions: 6 hours, 10 μM or range of concentrations, with 2 μM MG132
Description: 2a. […] The level of GSK-3-phosphorylated β-catenin was estimated by Western blotting following SDS-PAGE, using an antibody that specifically cross-reacts with GSK-3 phosphorylated β-catenin. […] 2b. Dose-response curves for a selection of indirubins were run in an ELISA assay using the same antibodies directed against GSK-3 phosphorylated β-catenin. SH-SY5Y cells were exposed for 6 hours to a range of concentrations of each indirubin, in the presence of MG132, and extracts were assessed in the ELISA assay. Activity was expressed as percentage of phosphorylated β-catenin in untreated control cells.
Nearly confluent SH-SY5Y human neuroblastoma cells were grown in 96 plates in DMEM (supplemented with 10% FCS and antibiotics). Cells were co-treated with tested compounds and 2 μM MG132 (to allow accumulation of phosphorylated β-catenin) for 6 hours. […] Cells were then subjected to an ELISA assay using antibodies directed against Ser33/Ser37/Thr41-phosphorylated (1:1000) p-catenin obtained from Cell Signaling Technology. Results are expressed in percentage of maximal β-Catenin phosphorylation, i.e. in untreated cells exposed to MG132 only as positive control (100% phosphorylation).
Cells were resuspended, lysed for 30 min at 4° C. in Homogenization Buffer and sonicated. After centrifugation (14000 r.p.m. for 15 min at 4° C.), the protein concentration was determined in the supernatants by the Bradford protein assay (Bio-Rad). Following heat denaturation for 5 min, proteins were separated by 10% NuPAGE pre-cast Bis-Tris Acetate polyacrylamide mini gel (Invitrogen) with MOPS SDS running buffer. Proteins were transferred to 0.45 μm nitrocellulose filters (Schleicher and Schuell). These were blocked with 5% low fat milk in Tris-Buffered Saline—Tween-20, incubated overnight at 4° C. with antibodies directed against Ser33/Ser37/Thr41-phosphorylated β-catenin (1:1000) (Cell Signaling Technology) and analyzed by Enhanced Chemiluminescence (ECL, Amersham).
Cells were exposed to various concentrations […] of each indirubin in the presence of a constant level of MG132 (an inhibitor of the proteasome which prevented the rapid degradation of β-catenin once phosphorylated by GSK-3). The level of GSK-3-phosphorylated was estimated either by Western blotting (with an antibody that specifically cross-reacts with β-catenin when phosphorylated at a GSK-3 site) following SDS-PAGE (FIG. 2a) or by an ELISA assay (FIG. 2b). […] Dose-response curves were obtained with ELISA assay (FIG. 2b).

GSK-3α/β = GSK-3α/β kinase assay (GS-1 substrate, 15 μM ATP); assay type: biochemical, porcine; conditions: 30° C., 30 min, read-out: GSK3 IC50
Description: (§1) Blank values were subtracted and activities calculated as pmoles of phosphate incorporated during a […] incubation. The activities were expressed in % of the maximal activity, i.e. in the absence of inhibitors. Controls were performed with appropriate dilutions of dimethylsulfoxide. Phosphorylation of the substrate was assessed by the P81 phosphocellulose assay.
GSK-3α/β was purified from porcine brain by affinity chromatography on immobilized axin^5. […] ATP (3,000 Ci/mmol; 10 mCi/ml) in a final volume of 30 μl. After 30 min. incubation at 30° C., 25 μl aliquots of supernatant were processed as described above.

CDK1/cyclin B = CDK1/cyclin B kinase assay (histone H1, 15 μM ATP); assay type: biochemical, starfish (Marthasterias glacialis); conditions: 30° C., 30 min
CDK5/p25 = CDK5/p25 (Homo sapiens, UniProt Q00535); experiment: CDK5/p25 kinase assay (histone H1, 15 μM ATP); assay type: biochemical; conditions: 30° C., 30 min
Chain of CDK5/p25 (Q00535 whole entry): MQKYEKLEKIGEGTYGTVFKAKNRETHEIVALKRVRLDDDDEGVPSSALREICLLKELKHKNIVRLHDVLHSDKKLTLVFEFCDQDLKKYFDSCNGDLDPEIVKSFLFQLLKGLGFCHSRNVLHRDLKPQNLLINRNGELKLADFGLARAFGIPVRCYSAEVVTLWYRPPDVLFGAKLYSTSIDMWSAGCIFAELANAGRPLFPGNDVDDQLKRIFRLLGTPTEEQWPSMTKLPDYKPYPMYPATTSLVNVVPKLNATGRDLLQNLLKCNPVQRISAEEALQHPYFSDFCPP
Chain of CDK5/p25 (Q15078 99-307 partner limits assumed): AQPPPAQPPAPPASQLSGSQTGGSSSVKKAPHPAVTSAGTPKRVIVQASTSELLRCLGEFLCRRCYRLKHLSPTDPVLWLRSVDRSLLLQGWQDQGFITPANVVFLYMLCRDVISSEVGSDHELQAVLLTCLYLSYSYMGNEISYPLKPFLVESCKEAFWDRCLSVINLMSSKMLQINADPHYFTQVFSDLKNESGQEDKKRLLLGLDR
Description: as §1
CDK5/p25 was reconstituted by mixing equal amounts of recombinant human CDK5 and p25 expressed in E. coli as GST (Glutathione-S-transferase) fusion proteins and purified by affinity chromatography on glutathione-agarose (p25 is a truncated version of p35, the 35 kDa CDK5 activator). Its activity was assayed with histone H1 in buffer C as described for CDK1/cyclin B.

In the case of `O=C1Nc2cc(Br)ccc2/C1=C1/Nc2ccccc2/C1=N\OCCN1CCN(CCO)CC1` [Cpd 13], the “Inhibition of β-catenin phosphorylation at GSK-3 sites” value (shortened to “Inhibition”) [1] is reported as “most efficient”.
In the case of `CN(C)CCO/N=C1/C(=C2/C(=O)Nc3cc(Br)ccc32)Nc2ccccc21` [Cpd 16, (2′Z-3′)-6-Bromoindirubin-3′-[O-(2-dimethylaminoethyl)oxime]Hydrochloride], the “Inhibition” value [1] is reported as “most efficient”.
With `CN1CCN(CCO/N=C2/C(=C3/C(=O)Nc4cc(Br)ccc43)Nc3ccccc32)CC1` [Cpd 23, (2′Z-3′E)-6-Bromoindirubin-3′-{O-[2-(4-methylpiperazin-1-yl)ethyl]oxime}Dihydrochloride] the IC50 (GSK-3α/β) was 5 nM, the “Inhibition” value [1] was “most efficient” and the IC50 (CDK1/cyclin B) was 300 nM. For the same molecule, the IC50 (CDK5/p25) was 300 nM.
With `CN(C)CCO/N=C1/C(=C2/C(=O)Nc3cc(Br)ccc32)Nc2ccccc21` [Cpd 5, (2′Z-3′E)-6-Bromoindirubin-3′-[O-(2-dimethylaminoethyl)-oxime]] the “Inhibition” value [1] was “most efficient”.
With `O=C1Nc2cc(Br)ccc2/C1=C1/Nc2ccccc2/C1=N\OCCN1CCOCC1` [Cpd 8, (2′Z-3′E)-6-Bromoindirubin-3′-[O-(2-morpholin-1-ylethyl)oxime]] the melting point was 235 °C.
For `O=C1Nc2cc(Br)ccc2/C1=C1/Nc2ccccc2/C1=N\OCC(O)CO` (stereo not shown) [Cpd 3, (2′Z-3′E)-6-Bromoindirubin-3′-[O-(2,3-dihydroxypropyl)-oxime]], the IC50 (GSK-3α/β) was 34 nM, the “Inhibition” value [1] was “most efficient” and the IC50 (CDK1/cyclin B) was 110 nM. It also gave a melting point greater than 300 °C and an IC50 (CDK5/p25) of 25 nM.
With `O=C1Nc2cc(Br)ccc2/C1=C1/Nc2ccccc2/C1=N\OCCN1CCN(CCO)CC1` [Cpd 24] the “Inhibition” value [1] was “most efficient”.
`O=C1Nc2cc(Br)ccc2/C1=C1/Nc2ccccc2/C1=N\OCCBr` [Cpd 1, (2′Z-3′E)-6-Bromoindirubin-3-[O-(2-bromoethyl)-oxime]] showed an IC50 (GSK-3α/β) of 140 nM, an IC50 (CDK1/cyclin B) greater than 10000 nM and a melting point of 252 °C.
For `CN(CCON=C1C(=C2C(=O)Nc3cc(Br)ccc32)Nc2ccccc21)CC(O)CO` (stereo not shown) [Cpd 21], the IC50 (GSK-3α/β) was 23 nM, the IC50 (CDK1/cyclin B) was 150 nM and the IC50 (CDK5/p25) was 100 nM.
In the case of `CCN(CC)CCO/N=C1/C(=C2/C(=O)Nc3cc(Br)ccc32)Nc2ccccc21` [Cpd 17, (2′Z-3′E)-6-Bromoindirubin-3′-[O-(2-diethylaminoethyl)oxime]Hydrochloride], the IC50 (GSK-3α/β) is reported as 27 nM, the IC50 (CDK1/cyclin B) is reported as 190 nM and the IC50 (CDK5/p25) is reported as 40 nM.
For `COCCN1CCN(CCO/N=C2/C(=C3/C(=O)Nc4cc(Br)ccc43)Nc3ccccc32)CC1` [Cpd 14], the IC50 (GSK-3α/β) was 11 nM, the IC50 (CDK1/cyclin B) was 2800 nM and the IC50 (CDK5/p25) was 500 nM.
Work on `CCN(CC)CCO/N=C1/C(=C2/C(=O)Nc3cc(Br)ccc32)Nc2ccccc21` [Cpd 6, (2′Z-3′E)-6-Bromoindirubin-3′-[O-(2-diethylaminoethyl)-oxime]] yielded an IC50 (GSK-3α/β) of 35 nM, an IC50 (CDK1/cyclin B) of 90 nM and an IC50 (CDK5/p25) of 20 nM.
With `O=C1Nc2cc(Br)ccc2/C1=C1/Nc2ccccc2/C1=N\OCCN1CCNCC1` [Cpd 11, (2′Z-3′E)-6-Bromoindirubin-3′-[O-(2-piperazine-1-ylethyl)oxime]] the “Inhibition” value [1] was “most efficient”.
`O=C1Nc2cc(Br)ccc2/C1=C1/Nc2ccccc2/C1=N\OCCN1CCN(CCOCCO)CC1` [Cpd 26, (2′Z-3′E)-6-Bromoindirubin-3′-[O-(2-{4-[2-(2-hydroxyethoxy)-ethyl]piperazin-1-yl}ethyl)oxime]Dihydrochloride] showed an IC50 (GSK-3α/β) of 33 nM, an IC50 (CDK1/cyclin B) of 500 nM and an IC50 (CDK5/p25) of 330 nM.
In the case of `CN1C(=O)C(=C2Nc3ccccc3C2=NO)c2ccc(Br)cc21` [1-methyl-6BIO, reference compound], the “Inhibition” value [1] is reported as “ineffective”.
Molecule `O=C1Nc2cc(Br)ccc2/C1=C1/Nc2ccccc2/C1=N\OCCN1CCCC1` [Cpd 7, (2′Z-3′E)-6-Bromoindirubin-3′-[O-(2-pyrrolidin-1-ylethyl)oxime]] has an IC50 (GSK-3α/β) of 26 nM, an IC50 (CDK1/cyclin B) of 500 nM and an IC50 (CDK5/p25) of 130 nM.
Molecule `COCCN1CCN(CCO/N=C2/C(=C3/C(=O)Nc4cc(Br)ccc43)Nc3ccccc32)CC1` [Cpd 25] has an IC50 (GSK-3α/β) of 20 nM, an IC50 (CDK1/cyclin B) of 1000 nM and an IC50 (CDK5/p25) of 400 nM.
With `O=C1Nc2cc(Br)ccc2/C1=C1/Nc2ccccc2/C1=N\OCCN(CCO)CCO` [Cpd 9] the “Inhibition” value [1] was “most efficient” and the melting point was 201 °C.
In the case of `O=C1Nc2cc(Br)ccc2/C1=C1/Nc2ccccc2/C1=N\OCCN1CCNCC1` [Cpd 22, (2′Z-3′E)-6-Bromoindirubin-3′-[O-(2-piperazine-1-ylethyl)oxime]Dihydrochloride], the “Inhibition” value [1] is reported as “most efficient” and the IC50 (CDK5/p25) is reported as 180 nM.
`O=C1Nc2cc(Br)ccc2/C1=C1/Nc2ccccc2/C1=N\OCCO` [Cpd 2, (2′Z-3′E)-6-Bromoindirubin-3′-[O-(2-hydroxyethyl)-oxime]] gave an IC50 (GSK-3α/β) of 1700 nM, an IC50 (CDK1/cyclin B) of 1700 nM and an IC50 (CDK5/p25) of 5000 nM.
In the case of `CCN(CC)C(=O)O/N=C1/C(=C2/C(=O)Nc3cc(Br)ccc32)Nc2ccccc21` [Cpd 4, (2′Z-3′E)-6-Bromoindirubin-3′-[O-(N,N-diethylcarbamyl)-oxime]], the IC50 (GSK-3α/β) is reported as 30 nM, the IC50 (CDK1/cyclin B) is reported as greater than 10000 nM and the melting point is reported as 237 °C.
Work on `O=C1Nc2cc(Br)ccc2/C1=C1/Nc2ccccc2/C1=N\OCCN1CCCC1` [Cpd 18, (2′Z-3′)-6-Bromoindirubin-3′-[O-(2-pyrrolidin-1-ylethyl)oxime]Hydrochloride] yielded an IC50 (GSK-3α/β) of 54 nM, an IC50 (CDK1/cyclin B) of 450 nM and an IC50 (CDK5/p25) of 100 nM.
With `CN1CCN(CCO/N=C2/C(=C3/C(=O)Nc4cc(Br)ccc43)Nc3ccccc32)CC1` [Cpd 12, (2′Z-3′E)-6-Bromoindirubin-3′-{O-[2-(4-methyl-piperazin-1-yl)ethyl]oxime}] the IC50 (GSK-3α/β) was 7 nM, the “Inhibition” value [1] was “most efficient” and the IC50 (CDK1/cyclin B) was 400 nM. The IC50 (CDK5/p25) was 400 nM.
In the case of `CN(CCO/N=C1/C(=C2/C(=O)Nc3cc(Br)ccc32)Nc2ccccc21)CC(O)CO` (stereo not shown) [Cpd 10, (2′Z-3′E)-6-Bromoindirubin-3′-(O-{2-[-methyl, N-(2,3-dihydroxypropyl)amino]ethyl}oxime]], the IC50 (GSK-3α/β) is reported as 67 nM, the IC50 (CDK1/cyclin B) is reported as 240 nM and the melting point is reported as 195 °C. It also gave an IC50 (CDK5/p25) of 240 nM.
